This assay concerns the target USP7 (Homo sapiens (Human), UniProt Q93009). Briefly: USP7 fluorescence polarisation (FP) assay with ubiquitin-Lys-TAMRA substrate. Format: biochemical. Particulars: biochemical inhibition. On the procedure:
USP7 activity was monitored in a fluorescence polarisation (FP) homogeneous assay using the isopeptide ubiquitin-Lys-TAMRA substrate (U-558, Boston Biochem). Full-length USP7 was purchased from Boston Biochem (His6-USP7FL, E-519). Unless otherwise stated, all other reagents were purchased from Sigma-Aldrich. Enzymatic reactions were conducted in black flat-bottom low volume polystyrene 384-well plates (Grenier) and 15 μL total volume. USP7 (2.5 nM, 5 μL) was incubated in assay buffer (50 mM HEPES (pH 7.2), 150 mM NaCl, 5 mM DTT, 0.05% BSA (w/v), 0.05% CHAPS) in the presence or absence of inhibitor (5 μL). Inhibitors were stored as 10 mM DMSO stocks in an inert environment (low humidity, dark, low oxygen, room temperature) using a Storage Pod System and serial dilutions were prepared in buffer just prior to the assay (from 200 to 0.003 μM, 11 dp curve). Following incubation at room temperature for 30 min, the enzymatic reactions were initiated by dispensing the Ub substrate (50 nM, 5 μL). FP was measured every 5 min over a period of 1.5 h (within the linear range of the assay) using a Pherastar FSX (BMG Labtech) exciting at 530 nm and measuring the amount of parallel and perpendicular light at 575 nm. The FP signal was subsequently normalised to the control without compound present. Data were plotted and fitted, and the concentrations resulting in 50% inhibition (IC50) were calculated using the non-linear regression curve fitting model using GraphPad Prism.
Background: Polarisation of emitted light reports the rotation of a fluorescent probe.

[1] abbreviates: read-out: USP7 IC50 activity (Table 3a, classes).
The mark [2] stands for this setting: unit not given in Table 3b (Table 1 and key of Table 3a use μM), read-out: USP7 IC50 activity (Table 3b).

Molecules are shown by their SMILES. Where two headings read alike, the source gives them in different places. Some results are limits rather than exact numbers.

By IC50 is commonly meant the concentration at which inhibition is half-maximal.

Chain of USP7 (Q93009 whole entry): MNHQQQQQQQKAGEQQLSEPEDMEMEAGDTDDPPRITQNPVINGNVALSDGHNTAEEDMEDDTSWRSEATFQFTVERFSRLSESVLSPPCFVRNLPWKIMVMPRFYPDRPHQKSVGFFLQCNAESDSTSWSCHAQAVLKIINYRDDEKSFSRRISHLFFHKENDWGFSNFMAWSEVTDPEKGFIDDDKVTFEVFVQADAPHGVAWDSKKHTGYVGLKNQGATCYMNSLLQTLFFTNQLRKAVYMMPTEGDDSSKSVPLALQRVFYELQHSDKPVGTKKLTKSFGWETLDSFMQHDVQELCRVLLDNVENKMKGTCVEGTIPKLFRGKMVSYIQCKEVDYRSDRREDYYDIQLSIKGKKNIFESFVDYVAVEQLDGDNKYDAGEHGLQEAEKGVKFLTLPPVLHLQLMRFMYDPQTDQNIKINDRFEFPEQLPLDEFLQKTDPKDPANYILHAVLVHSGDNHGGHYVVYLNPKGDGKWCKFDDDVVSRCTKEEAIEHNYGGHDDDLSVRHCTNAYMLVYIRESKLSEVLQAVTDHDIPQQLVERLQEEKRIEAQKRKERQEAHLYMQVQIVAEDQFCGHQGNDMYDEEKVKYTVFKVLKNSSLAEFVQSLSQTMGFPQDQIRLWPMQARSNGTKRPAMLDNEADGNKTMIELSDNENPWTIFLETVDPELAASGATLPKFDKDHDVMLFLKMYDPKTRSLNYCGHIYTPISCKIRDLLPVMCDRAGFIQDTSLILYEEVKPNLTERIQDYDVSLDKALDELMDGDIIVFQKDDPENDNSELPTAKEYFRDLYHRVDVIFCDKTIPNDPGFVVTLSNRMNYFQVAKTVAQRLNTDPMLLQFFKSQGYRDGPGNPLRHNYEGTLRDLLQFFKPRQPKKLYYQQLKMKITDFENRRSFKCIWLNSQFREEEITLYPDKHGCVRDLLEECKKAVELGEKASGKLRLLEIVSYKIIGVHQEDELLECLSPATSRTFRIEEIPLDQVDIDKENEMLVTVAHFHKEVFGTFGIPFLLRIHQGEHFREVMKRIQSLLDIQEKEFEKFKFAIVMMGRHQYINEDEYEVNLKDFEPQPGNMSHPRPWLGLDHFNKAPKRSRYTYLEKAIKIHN

As for `C[C@H]1CN[C@H](c2ccc(-n3c(Cl)cc4c(=O)n(CC5(O)CCN(C(=O)c6ccc(F)cc6F)CC5)cnc43)cc2)CO1` [Example 22, 6-Chloro-3-((1-(2,4-difluorobenzoyl)-4-hydroxypiperidin-4-yl)methyl)-7-(4-((3R,6S)-6-methylmorpholin-3-yl)phenyl)-3,7-dihydro-4H-pyrrolo[2,3-d]pyrimidin-4-one], the IC50 by setting is: under setting [1], 0.1 to 0.25 µM; under setting [2], 0.222 µM.

Regarding `Cc1cc(-n2c(Cl)cc3c(=O)n(CC4(O)CCN(C(=O)c5ccc(Cl)cc5)CC4)cnc32)ccc1[C@@H]1CO[C@@H](C)CN1` [Example 5, 6-Chloro-3-((1-(4-chlorobenzoyl)-4-hydroxypiperidin-4-yl)methyl)-7-(3-methyl-4-((3R,6S)-6-methylmorpholin-3-yl)phenyl)-3,7-dihydro-4H-pyrrolo[2,3-d]pyrimidin-4-one], the IC50 runs as follows: under setting [1], 0.1 to 0.25 µM; under setting [2], 0.225 µM.

For `O=C(c1ccc(Cl)cc1)N1CCC(O)(Cn2cnc3c(cc(Cl)n3-c3ccc([C@@H]4CO[C@@H](C5CC5)CN4)cc3)c2=O)CC1` (single isomer, unassigned) [Example 64], the IC50 was 0.1 to 0.25 µM under setting [1] and 0.11 µM under setting [2].

As for `CC1(C(=O)N2CCC(O)(Cn3cnc4c(cc(Cl)n4-c4ccc(C5COCC6(CC6)N5)cc4)c3=O)CC2)CC1` (stereo not drawn) [Example 19, 7-(4-(7-Oxa-4-azaspiro[2.5]octan-5-yl)phenyl)-6-chloro-3-((4-hydroxy-1-(1-methylcyclopropane-1-carbonyl)piperidin-4-yl)methyl)-3,7-dihydro-4H-pyrrolo[2,3-d]pyrimidin-4-one], the IC50 reads like this: under setting [1], 0.25 to 2 µM; under setting [2], 0.372 µM.

`C[C@H]1CN[C@H](c2ccc(-n3c(Cl)cc4c(=O)n(CC5(O)CCN(C(=O)c6ccccc6)CC5)cnc43)cc2)CO1` [Example 20, 3-((1-Benzoyl-4-hydroxypiperidin-4-yl)methyl)-6-chloro-7-(4-((3R,6S)-6-methylmorpholin-3-yl)phenyl)-3,7-dihydro-4H-pyrrolo[2,3-d]pyrimidin-4-one]: the IC50 is 0.25 to 2 µM under setting [1] and 0.379 µM under setting [2].

`O=C(C[C@H](c1ccccc1)C(F)(F)F)N1CCC(O)(Cn2cnc3c(cc(Cl)n3-c3ccc([C@H]4COCCN4)cc3)c2=O)CC1` (single isomer, unassigned) [Example 78]: the IC50 reads like this: under setting [1], < 0.1 µM; under setting [2], 0.016 µM.

With `C[C@H]1CN[C@H](c2ccc(-n3ccc4c(=O)n(CC5(O)CCN(C(=O)c6ccc(Cl)cc6)CC5)cnc43)cc2)CO1` (racemic) [Example 17, rac-3-((1-(4-Chlorobenzoyl)-4-hydroxypiperidin-4-yl)methyl)-7-(4-((3R,6S)-6-methylmorpholin-3-yl)phenyl)-3,7-dihydro-4H-pyrrolo[2,3-d]pyrimidin-4-one], the IC50 runs as follows: under setting [1], 0.1 to 0.25 µM; under setting [2], 0.175 µM.

For the compound `C[C@@H]1CN[C@@H](c2ccc(-n3c(Cl)cc4c(=O)n(CC5(O)CCN(C(=O)C[C@H](c6ccccc6)C(F)(F)F)CC5)cnc43)cc2)CO1` [Example 13, 6-Chloro-3-((4-hydroxy-1-((R)-4,4,4-trifluoro-3-phenylbutanoyl)piperidin-4-yl)methyl)-7-(4-((3S,6R)-6-methylmorpholin-3-yl)phenyl)-3,7-dihydro-4H-pyrrolo[2,3-d]pyrimidin-4-one], the IC50 by setting is: under setting [1], < 0.1 µM; under setting [2], 0.028 µM.

For `C[C@H]1CN[C@H](c2ccc(-n3c(Cl)cc4c(=O)n(CC5(O)CCN(C(=O)[C@@]6(C)C[C@@H]6C(F)F)CC5)cnc43)cc2)CO1` [Example 111, 6-Chloro-3-((1-((1 S,2S)-2-(difluoromethyl)-1-methylcyclopropane-1-carbonyl)-4-hydroxypiperidin-4-yl)methyl)-7-(4-((3R,6S)-6-methylmorpholin-3-yl)phenyl)-3,7-dihydro-4H-pyrrolo[2,3-d]pyrimidin-4-one], the IC50 runs as follows: under setting [1], 0.1 to 0.25 µM; under setting [2], 0.145 µM.

`CC1(C(=O)N2CCC(O)(Cn3cnc4c(cc(Cl)n4-c4ccc(C5(C)COCCN5)cc4)c3=O)CC2)CC1` (stereo not drawn) [Example 3, 6-Chloro-3-((4-hydroxy-1-(1-methylcyclopropane-1-carbonyl)piperidin-4-yl)methyl)-7-(4-(3-methylmorpholin-3-yl)phenyl)-3,7-dihydro-4H-pyrrolo[2,3-d]pyrimidin-4-one]: the IC50 under setting [1] was 0.1 to 0.25 µM and the IC50 under setting [2] came to 0.132 µM.

In the case of `C[C@H]1CN[C@H](c2ccc(-n3c(Cl)cc4c(=O)n(CC5(O)CCN(C(=O)C6(C)CCC6)CC5)cnc43)cc2)CO1` [Example 102, 6-Chloro-3-((4-hydroxy-1-(1-methylcyclobutane-1-carbonyl)piperidin-4-yl)methyl)-7-(4-((3R,6S)-6-methylmorpholin-3-yl)phenyl)-3,7-dihydro-4H-pyrrolo[2,3-d]pyrimidin-4-one], the concentration for half-maximal inhibition (IC50) reads like this: under setting [1], < 0.1 µM; under setting [2], 0.05 µM.

In the case of `C[C@H]1CN[C@H](c2ccc(-n3c(Cl)cc4c(=O)n(CC5(O)CCN(C(=O)c6ccccc6F)CC5)cnc43)cc2)CO1` [Example 36, 6-Chloro-3-((1-(2-fluorobenzoyl)-4-hydroxypiperidin-4-yl)methyl)-7-(4-((3R,6S)-6-methylmorpholin-3-yl)phenyl)-3,7-dihydro-4H-pyrrolo[2,3-d]pyrimidin-4-one], the IC50 is, setting by setting: under setting [1], 0.25 to 2 µM; under setting [2], 0.511 µM.

Regarding `CC1(C)CN[C@H](c2ccc(-n3c(Cl)cc4c(=O)n(CC5(O)CCN(C(=O)c6ccc(F)cc6)CC5)cnc43)cc2)CO1` (single isomer, unassigned) [Example 29], the IC50 by setting is: under setting [1], 0.1 to 0.25 µM; under setting [2], 0.118 µM.

Take `CC1(C)COCC(c2ccc(-n3c(Cl)cc4c(=O)n(CC5(O)CCN(C(=O)c6ccc(Cl)cc6)CC5)cnc43)cc2)N1` (stereo not drawn) [Example 16, 6-Chloro-3-((1-(4-chlorobenzoyl)-4-hydroxypiperidin-4-yl)methyl)-7-(4-(5,5-dimethylmorpholin-3-yl)phenyl)-3,7-dihydro-4H-pyrrolo[2,3-d]pyrimidin-4-one]: the IC50 is 0.1 to 0.25 µM under setting [1] and 0.249 µM under setting [2].

Take `Cc1cc(-n2c(Cl)cc3c(=O)n(CC4(O)CCN(C(=O)C5(C)CC5)CC4)cnc32)ccc1[C@H]1COCCN1` (single isomer, unassigned) [Example 73]: the concentration for half-maximal inhibition (IC50) was < 0.1 µM under setting [1] and 0.018 µM under setting [2].

For `CC[C@H]1CN[C@H](c2ccc(-n3c(Cl)cc4c(=O)n(CC5(O)CCN(C(=O)C6(C)CC6)CC5)cnc43)cc2)CO1` [Example 106, 6-Chloro-7-(4-((3R,6S)-6-ethylmorpholin-3-yl)phenyl)-3-((4-hydroxy-1-(1-methylcyclopropane-1-carbonyl)piperidin-4-yl)methyl)-3,7-dihydro-4H-pyrrolo[2,3-d]pyrimidin-4-one], the IC50 runs as follows: under setting [1], 0.1 to 0.25 µM; under setting [2], 0.121 µM.

`C[C@H]1CN[C@H](c2ccc(-n3c(Cl)cc4c(=O)n(CC5(O)CCN(C(=O)c6ccc(Cl)cc6F)CC5)cnc43)cc2)CO1` [Example 30, 6-Chloro-3-((1-(4-chloro-2-fluorobenzoyl)-4-hydroxypiperidin-4-yl)methyl)-7-(4-((3R,6S)-6-methylmorpholin-3-yl)phenyl)-3,7-dihydro-4H-pyrrolo[2,3-d]pyrimidin-4-one]: the IC50 is 0.1 to 0.25 µM under setting [1] and 0.164 µM under setting [2].

For the compound `Cc1cc(-n2c(Cl)cc3c(=O)n(CC4(O)CCN(C(=O)c5ccc(C6CC6)cc5)CC4)cnc32)ccc1[C@H]1CO[C@H](C)CN1` [Example 93, 6-Chloro-3-((1-(4-cyclopropylbenzoyl)-4-hydroxypiperidin-4-yl)methyl)-7-(3-methyl-4-((3S,6R)-6-methylmorpholin-3-yl)phenyl)-3,7-dihydro-4H-pyrrolo[2,3-d]pyrimidin-4-one], the IC50 is 0.1 to 0.25 µM under setting [1] and 0.16 µM under setting [2].

In the case of `CC1(C(=O)N2CCC(O)(Cn3cnc4c(cc(Cl)n4-c4ccc([C@@H]5COCCN5)cc4)c3=O)CC2)CC1` (single isomer, unassigned) [Example 71], the IC50 was < 0.1 µM under setting [1] and 0.094 µM under setting [2].

For `C[C@@H]1CN[C@@H](c2ccc(-n3c(Cl)cc4c(=O)n(CC5(O)CCN(C(=O)c6ccc(F)cc6)CC5)cnc43)cc2)CO1` [Example 25, 6-Chloro-3-((1-(4-fluorobenzoyl)-4-hydroxypiperidin-4-yl)methyl)-7-(4-((3S,6R)-6-methylmorpholin-3-yl)phenyl)-3,7-dihydro-4H-pyrrolo[2,3-d]pyrimidin-4-one], the IC50 reads like this: under setting [1], 0.1 to 0.25 µM; under setting [2], 0.147 µM.

As for `O=C(N1CCC(O)(Cn2cnc3c(cc(Cl)n3-c3ccc([C@@H]4NC[C@@H]5CC[C@H]4O5)cc3)c2=O)CC1)C1(C2CC2)CC1` [Example 49, 7-(4-((1R,2S,5S)-8-Oxa-3-azabicyclo[3.2.1]octan-2-yl)phenyl)-3-((1-([1,1′-bi(cyclopropane)]-1-carbonyl)-4-hydroxypiperidin-4-yl)methyl)-6-chloro-3,7-dihydro-4H-pyrrolo[2,3-d]pyrimidin-4-one], the IC50 was 0.1 to 0.25 µM under setting [1] and 0.223 µM under setting [2].

These data come from patent publication US20250122223A1, “HETEROCYCLIC COMPOUNDS AS UBIQUITIN SPECIFIC PROTEASE 7 INHIBITORS” (ALMAC DISCOVERY LIMITED, priority 2022, published 2025).
